Measured values reported in US20260124293A1 (priority 2022, published 2026).

System: WT SARS-CoV-2 or OTS4-5-7-8 in VeroE6/TMPRSS2 cells
Format: cell-based

For `CC(C)C(=O)OC[C@H]1O[C@@H](n2ccc(NO)nc2=O)[C@H](O)[C@@H]1O` [molnupiravir], the “number of infectious virus particles in a TCID50 virus assay on adding a mutagen” value was “reduced the number of infectious virus particles”.
